# Values of other authors, collected in publication PMC3653137 (Molecular pharmaceutics, 2013).
# Residues, ends and D or L forms follow the SMILES beside them.
# How the values were obtained:
# [1] = system: SK-OV-3 cells; details: [WR]4 alone at similar concentrations
# [2] = system: CCRF-CEM cells; details: [WR]4 alone at similar concentrations
# [3] = system: HCT-116 cells; details: [WR]4 alone at similar concentrations
# [4] = system: BT-20 cells; details: BT-20 human breast carcinoma cells
fold enhancement of cellular delivery of F′-GpYEEI by the carrier peptide [4] [fold],Compound,cytotoxicity in SK-OV-3 cells [1],cytotoxicity in CCRF-CEM cells [2],cytotoxicity in HCT-116 cells [3]
–,N=C(N)NCCC[C@@H]1NC(=O)[C@H](Cc2c[nH]c3ccccc23)NC(=O)[C@H](CCCNC(=N)N)NC(=O)[C@H](Cc2c[nH]c3ccccc23)NC(=O)[C@H](CCCNC(=N)N)NC(=O)[C@H](Cc2c[nH]c3ccccc23)NC(=O)[C@H](CCCNC(=N)N)NC(=O)[C@H](Cc2c[nH]c3ccccc23)NC1=O [[WR]4] (cyclo(RWRWRWRW)),not cytotoxic,not cytotoxic,not cytotoxic
10,Lys-(CH2)11-Arg-(CH2)11-Arg [LPA4],–,–,–
